Results on 15 molecules are retold here after patent publication US8778871B2 (Takeda Pharmaceutical Company Limited, priority 2004, dated 2014).

Starred links: 1 amine or outer side, 2 acyl side, 3 side chain; linkers in the order of their positions; H or OH if unused. Non-standard residues stand in square brackets, D forms with d. Residues, ends and D or L forms follow the SMILES beside them. *: point of attachment. X11 = NC(=O)C[C@@H](CN([C@@H](Cc1c[nH]c2ccccc12)C(=O)[*:2])[*:1])N[*:3]; X1 = NC(=O)C[C@@H](C(=O)[*:2])N(C[C@@H](N)Cc1ccc(O)cc1)[*:1]; X8 = O=C([C@H](Cc1ccc2ccccc2n1)N[*:1])[*:2]; Cyclohexanecarbonyl = O=C(C1CCCCC1)*; Arg(Me) = CNC(=N)NCCC[C@H](N)C(=O)O; 2Pal = N[C@@H](Cc1ccccn1)C(=O)O; 4Pal = N[C@@H](Cc1ccncc1)C(=O)O; d3Pal = N[C@H](Cc1cccnc1)C(=O)O; d4Pal = N[C@H](Cc1ccncc1)C(=O)O; Cha = N[C@@H](CC1CCCCC1)C(=O)O; Hexanoyl = CCCCCC(=O)*; azaGly = NNC(=O)O

T1 sequence (Q969F8 whole entry L364H): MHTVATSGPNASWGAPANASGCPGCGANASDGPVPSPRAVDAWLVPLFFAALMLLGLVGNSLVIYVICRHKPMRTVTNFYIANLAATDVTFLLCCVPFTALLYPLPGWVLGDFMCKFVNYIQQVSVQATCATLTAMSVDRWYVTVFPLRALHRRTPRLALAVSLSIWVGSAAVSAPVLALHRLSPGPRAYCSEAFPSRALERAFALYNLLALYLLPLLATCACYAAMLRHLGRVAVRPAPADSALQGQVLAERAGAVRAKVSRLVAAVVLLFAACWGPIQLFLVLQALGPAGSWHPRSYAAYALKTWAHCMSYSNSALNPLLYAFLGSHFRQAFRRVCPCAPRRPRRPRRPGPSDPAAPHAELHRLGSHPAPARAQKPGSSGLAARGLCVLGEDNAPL

The test concerns the target T1, hOT7T175 (Homo sapiens, UniProt Q969F8).
T1 construct: expressed in transfected cells
Put plainly: Intracellular Ca ion level-increasing activity using FLIPR (180 seconds; specific activity to Metastin (1-54)). The test is classed as cell-based. The settings on record: hOT7T175/CHO, change in intracellular calcium ion level for 180 seconds, Tables 21-23. On the procedure:
In accordance with the method described in JPA 2000-312590, the intracellular Ca ion level-increasing activity was measured using FLIPR. […]
The intracellular Ca ion level-increasing activity of the synthetic peptide in hOT7T175/CHO was determined using FLIPR (Molecular Devices, Inc.).
hOT7T175/CHO was subcultured in DMEM supplemented with 10% dialyzed fetal bovine serum (hereinafter abbreviated as dFBS) and provided for the experiment (hereinafter abbreviated as 10% dFBS/DMEM). The hOT7T175/CHO was suspended in 10% dFBS-DMEM in 15×10^4 cells/ml. The suspension was inoculated on a 96-well plate for FLIPR (Black Plate Clear Bottom, Coster, Inc.) at 200 μl each (3.0×10^4 cells/200 μl), followed by incubation at 37° C. overnight in a 5% CO2 incubator. The cells thus incubated were used (hereinafter simply referred to as the cell plate). Then, 21 ml of HANKS/HBSS (9.8 g of HANKS', 0.35 g of sodium hydrogencarbonate, 20 ml of 1M HEPES; after adjusting the pH to 7.4 with 1N sodium hydroxide, the mixture was subjected to sterilization through a filter), 210 μl of […] Probenecid and 210 μl of fetal bovine serum (FBS) were mixed (HANKS/HBSS-Probenecid-FBS).
Furthermore, 2 vials of Fluo3-AM (50 μg/vial) were dissolved in 21 μL of dimethylsulfoxide and 21 μL of 20% Pluronic acid. The resulting solution was added to and mixed with 10 ml of HANKS/HBSS-Probenecid-FBS described above. After the culture medium was removed, the mixture was dispensed onto the cell plate in 100 μl each/well, followed by incubation at 37° C. for an hour in a 5% CO2 incubator (pigment loading). The peptide was dissolved in dimethylsulfoxide in 1×10^−3 M. The peptide solution was diluted with HANKS'/HBSS containing 2.5 mM Probenecid and 0.2% BSA. The dilution was transferred to a 96-well plate for FLIPR (V-Bottom plate, Coster, Inc.) (hereinafter referred to as a sample plate). After completion of the pigment loading onto the cell plate, the cell plate washed 4 times with wash buffer, which was obtained by adding 2.5 mM Probenecid to HANKS'/HBSS, using a plate washer to leave 100 μL of wash buffer after the washing. The cell plate and the sample plate were set in FLIPR and 0.05 ml of a sample from the sample plate was automatically transferred to the cell plate with the FLIPR device to promote the cell response. A change in intracellular calcium ion level for 180 seconds was measured with passage of time.
`CCCCCC(=O)N[C@@H](CC(N)=O)C(=O)N[C@@H](CO)C(=O)N[C@@H](Cc1ccccc1)C(=O)NNC(=O)N[C@@H](CC(C)C)C(=O)N[C@@H](CCCNC(=N)NC)C(=O)N[C@@H](Cc1ccccc1)C(N)=O` [Compound No. 277, n-Hexanoyl-Asn-Ser-Phe-AzaGly-Leu-Arg(Me)-Phe-NH2] (Hexanoyl-NSF[azaGly]L[Arg(Me)]F-NH2): the “intracellular Ca ion level-increasing activity [specific activity to Metastin (1-54)]” value was 2.
Then `CNC(=N)NCCC[C@H](NC(=O)[C@H](CC(C)C)NC(=O)NNC(=O)[C@H](Cc1ccccc1)NC(=O)[C@H](CO)NC(=O)[C@H](CC(N)=O)NC(=O)C1CCCCC1)C(=O)N[C@@H](Cc1ccccc1)C(N)=O` [Compound No. 278, Cyclohexanecarbonyl-Asn-Ser-Phe-AzaGly-Leu-Arg(Me)-Phe-NH2] (Cyclohexanecarbonyl-NSF[azaGly]L[Arg(Me)]F-NH2), with 2; and `CNC(=N)NCCC[C@H](NC(=O)[C@H](CC(C)C)NC(=O)CNC(=O)[C@H](Cc1ccccn1)NC(=O)[C@H](CO)NC(=O)[C@H](CC(N)=O)NC(=O)[C@H](Cc1c[nH]c2ccccc12)NC(=O)[C@H](CC(N)=O)NC(=O)[C@H](N)Cc1ccc(O)cc1)C(=O)N[C@@H](Cc1ccccc1)C(N)=O` [Compound No. 281, D-Tyr-Asn-Trp-Asn-Ser-Pya(2)-Gly-Leu-Arg(Me)-Phe-NH2] (H-[dY]NWNS[2Pal]GL[Arg(Me)]F-NH2), with “½”; and `CNC(=N)NCCC[C@H](NC(=O)[C@H](CC(C)C)NC(=O)NNC(=O)[C@H](Cc1ccccc1)NC(=O)[C@H](CO)NC(=O)[C@H](CC(N)=O)NC(=O)[C@@H](NC(=O)[C@@H](CC(N)=O)NC(=O)[C@H](N)Cc1ccc(O)cc1)[C@@H](C)O)C(=O)N[C@@H](Cc1ccccc1)C(N)=O` [Compound No. 284, D-Tyr-D-Asn-Thr-Asn-Ser-Phe-AzaGly-Leu-Arg(Me)-Phe-NH2] (H-[dY][dN]TNSF[azaGly]L[Arg(Me)]F-NH2), with 1.
Consider `CNC(=N)NCCC[C@H](NC(=O)[C@H](CC(C)C)NC(=O)NNC(=O)[C@H](Cc1ccccc1)NC(=O)[C@H](CO)NC(=O)[C@H](CC(N)=O)NC(=O)[C@H](Cc1ccncc1)NC(=O)[C@H](CC(N)=O)NC(=O)[C@H](N)Cc1ccc(O)cc1)C(=O)N[C@@H](Cc1ccccc1)C(N)=O` [Compound No. 286, D-Tyr-Asn-Pya(4)-Asn-Ser-Phe-AzaGly-Leu-Arg(Me)-Phe-NH2] (H-[dY]N[4Pal]NSF[azaGly]L[Arg(Me)]F-NH2), for which the “intracellular Ca ion level-increasing activity [specific activity to Metastin (1-54)]” value is given as 2.
Then `CNC(=N)NCCC[C@H](NC(=O)[C@H](CC(C)C)NC(=O)NNC(=O)[C@H](Cc1ccccc1)NC(=O)[C@H](CO)NC(=O)[C@H](CC(N)=O)NC(=O)[C@H](Cc1c[nH]c2ccccc12)NC(=O)[C@@H](CO)NC(=O)[C@H](N)Cc1ccc(O)cc1)C(=O)N[C@@H](Cc1ccccc1)C(N)=O` [Compound No. 287, D-Tyr-D-Ser-Trp-Asn-Ser-Phe-AzaGly-Leu-Arg(Me)-Phe-NH2] (H-[dY][dS]WNSF[azaGly]L[Arg(Me)]F-NH2), with 2; and `CNC(=N)NCCC[C@H](NC(=O)[C@H](CC(C)C)NC(=O)NNC(=O)[C@H](Cc1ccccc1)NC(=O)[C@H](CO)NC(=O)[C@H](CC(N)=O)NC(=O)[C@H](Cc1c[nH]c2ccccc12)NC(=O)[C@@H](Cc1c[nH]cn1)NC(=O)[C@H](N)Cc1ccc(O)cc1)C(=O)N[C@@H](Cc1ccccc1)C(N)=O` [Compound No. 288, D-Tyr-D-His-Trp-Asn-Ser-Phe-AzaGly-Leu-Arg(Me)-Phe-NH2] (H-[dY][dH]WNSF[azaGly]L[Arg(Me)]F-NH2), with 1; and `CNC(=N)NCCC[C@H](NC(=O)[C@H](CC(C)C)NC(=O)NNC(=O)[C@H](Cc1ccccc1)NC(=O)[C@H](CO)NC(=O)[C@H](CC(N)=O)NC(=O)[C@H](Cc1c[nH]c2ccccc12)NC(=O)[C@H](N)Cc1cccnc1)C(=O)N[C@@H](Cc1ccccc1)C(N)=O` [Compound No. 289, D-Pya(3)-Trp-Asn-Ser-Phe-AzaGly-Leu-Arg(Me)-Phe-NH2] (H-[d3Pal]WNSF[azaGly]L[Arg(Me)]F-NH2), with 1.
Regarding `CNC(=N)NCCC[C@H](NC(=O)[C@H](CC(C)C)NC(=O)NNC(=O)[C@H](Cc1ccccc1)NC(=O)[C@H](CO)NC(=O)[C@H](CC(N)=O)NC(=O)[C@H](CC1CCCCC1)NC(=O)[C@@H](CC(N)=O)NC(=O)[C@H](N)Cc1cccnc1)C(=O)N[C@@H](Cc1ccccc1)C(N)=O` [Compound No. 290, D-Pya(3)-D-Asn-Cha-Asn-Ser-Phe-AzaGly-Leu-Arg(Me)-Phe-NH2] (H-[d3Pal][dN][Cha]NSF[azaGly]L[Arg(Me)]F-NH2), the “intracellular Ca ion level-increasing activity [specific activity to Metastin (1-54)]” value is on record as 1.
Regarding `CNC(=N)NCCC[C@H](NC(=O)[C@H](CC(C)C)NC(=O)NNC(=O)[C@H](Cc1ccccc1)NC(=O)[C@H](CO)NC(=O)[C@H](CC(N)=O)NC(=O)[C@H](CC1CCCCC1)NC(=O)[C@@H](Cc1ccc(O)cc1)NC(=O)[C@H](N)Cc1cccnc1)C(=O)N[C@@H](Cc1ccccc1)C(N)=O` [Compound No. 291, D-Pya(3)-D-Tyr-Cha-Asn-Ser-Phe-AzaGly-Leu-Arg(Me)-Phe-NH2] (H-[d3Pal][dY][Cha]NSF[azaGly]L[Arg(Me)]F-NH2), the “intracellular Ca ion level-increasing activity [specific activity to Metastin (1-54)]” value is 2.
With `CC(C)C[C@H](NC(=O)CNC(=O)[C@H](Cc1ccccc1)NC(=O)[C@H](CO)NC(=O)[C@H](CC(N)=O)NC(=O)[C@H](Cc1c[nH]c2ccccc12)NC[C@H](CC(N)=O)NC(=O)[C@@H](N)Cc1ccc(O)cc1)C(=O)N[C@@H](CCCNC(=N)N)C(=O)N[C@@H](Cc1ccccc1)C(N)=O` [Compound No. 295] (H-[X11](Tyr)NSFGLRF-NH2), the “intracellular Ca ion level-increasing activity [specific activity to Metastin (1-54)]” value is recorded as 1.
Then `CNC(=N)NCCC[C@H](NC(=O)[C@H](CC(C)C)NC(=O)NNC(=O)[C@H](Cc1ccccc1)NC(=O)[C@H](CO)NC(=O)[C@H](CC(N)=O)NC(=O)[C@H](Cc1c[nH]c2ccccc12)NC(=O)[C@H](CC(N)=O)NC[C@@H](N)Cc1ccc(O)cc1)C(=O)N[C@@H](Cc1ccccc1)C(N)=O` [Compound No. 299, TyrΨ(CH2NH)Asn-Trp-Asn-Ser-Phe-AzaGly-Leu-Arg(Me)-Phe-NH2] (H-[X1]WNSF[azaGly]L[Arg(Me)]F-NH2), with 5; and `CNC(=N)NCCC[C@H](NC(=O)[C@H](CC(C)C)NC(=O)NNC(=O)[C@H](Cc1ccccc1)NC(=O)[C@H](CO)NC(=O)[C@H](CC(N)=O)NC(=O)[C@@H](Cc1c[nH]c2ccccc12)NC(=O)[C@H](CC(N)=O)NC[C@@H](N)Cc1ccc(O)cc1)C(=O)N[C@@H](Cc1ccccc1)C(N)=O` [Compound No. 300, TyrΨ(CH2NH)Asn-D-Trp-Asn-Ser-Phe-AzaGly-Leu-Arg(Me)-Phe-NH2] (H-[X1][dW]NSF[azaGly]L[Arg(Me)]F-NH2), with 5.
Turning to `CNC(=N)NCCC[C@H](NC(=O)[C@H](CC(C)C)NC(=O)NNC(=O)[C@H](Cc1ccccc1)NC(=O)[C@H](CO)NC(=O)[C@H](CC(N)=O)NC(=O)[C@H](Cc1ccc2ccccc2n1)NC(=O)[C@H](CC(N)=O)NC(=O)[C@H](N)Cc1ccc(O)cc1)C(=O)N[C@@H](Cc1ccccc1)C(N)=O` [Compound No. 301, D-Tyr-Asn-Ala(2-Qui)-Asn-Ser-Phe-AzaGly-Leu-Arg(Me)-Phe-NH2] (H-[dY]N[X8]NSF[azaGly]L[Arg(Me)]F-NH2), the “intracellular Ca ion level-increasing activity [specific activity to Metastin (1-54)]” value worked out at 1.
Consider `CNC(=N)NCCC[C@H](NC(=O)[C@H](CC(C)C)NC(=O)NNC(=O)[C@H](Cc1ccccc1)NC(=O)[C@H](CO)NC(=O)[C@H](CC(N)=O)NC(=O)[C@@H](Cc1ccncc1)NC(=O)[C@H](CC(N)=O)NC(=O)[C@H](N)Cc1ccc(O)cc1)C(=O)N[C@@H](Cc1ccccc1)C(N)=O` [Compound No. 302, D-Tyr-Asn-D-Pya(4)-Asn-Ser-Phe-AzaGly-Leu-Arg(Me)-Phe-NH2] (H-[dY]N[d4Pal]NSF[azaGly]L[Arg(Me)]F-NH2), for which the “intracellular Ca ion level-increasing activity [specific activity to Metastin (1-54)]” value is on record as 2.
